ChEMBL document CHEMBL1132337, “Chiral resolution and stereospecificity of 6-phenyl-4-phenylethynyl- 1,4-dihydropyridines as selective A(3) adenosine receptor antagonists” (J Med Chem, 1999)

Molecular target: Adenosine receptor A2a (Rattus norvegicus) (UniProt P30543)
Assay: Displacement of [3H]CGS-21680 from Adenosine A2A receptor of rat striatal membrane at 10e-4 M

Adenosine receptor A2a (Rattus norvegicus), sequence (P30543 whole entry): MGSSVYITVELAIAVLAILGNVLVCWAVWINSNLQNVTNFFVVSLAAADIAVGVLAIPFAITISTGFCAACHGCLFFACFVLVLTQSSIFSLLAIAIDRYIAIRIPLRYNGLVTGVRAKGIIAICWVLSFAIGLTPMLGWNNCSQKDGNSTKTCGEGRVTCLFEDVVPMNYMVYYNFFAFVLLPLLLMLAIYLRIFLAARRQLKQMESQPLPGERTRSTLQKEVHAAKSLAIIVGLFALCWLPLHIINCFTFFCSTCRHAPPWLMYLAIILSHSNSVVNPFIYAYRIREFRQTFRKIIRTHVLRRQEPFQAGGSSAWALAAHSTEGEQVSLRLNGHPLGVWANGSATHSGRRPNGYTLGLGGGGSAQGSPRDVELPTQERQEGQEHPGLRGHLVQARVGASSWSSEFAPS

Row | inhibition [%] | Compound
1 | 10 | CCO/C(O)=C1\C(C)=NC(c2ccccc2)=C(C(=O)OCc2ccccc2)C1C#Cc1ccccc1 (stereo unspecified)
2 | 10 | CCOC(=O)C1=C(c2ccccc2)N=C(C)/C(=C(/O)OC[C@H]2COC(C)(C)O2)[C@H]1C#Cc1ccccc1

Further lines, the molecule ahead of its results:

Row | Compound | inhibition [%]
3 | CCO/C(O)=C1\C(C)=NC(c2ccccc2)=C(C(=O)OCc2ccccc2)[C@@H]1C#Cc1ccccc1 | 11
4 | CCOC(=O)C1=C(c2ccccc2)N=C(C)/C(=C(/O)OC[C@H](O)CO)[C@H]1C#Cc1ccccc1 | 10
5 | CCOC(=O)C1=C(c2ccccc2)N=C(C)/C(=C(/O)OC[C@H]2COC(C)(C)O2)[C@@H]1C#Cc1ccccc1 | 10
6 | CCO/C(O)=C1\C(C)=NC(c2ccccc2)=C(C(=O)OCc2ccccc2)[C@H]1C#Cc1ccccc1 | 14
